# Assay results published in US9149530B2, “Compositions and methods for enhancing active agent absorption” (Nexus Pharma, Inc., priority 2006, dated 2015).
# Test system: Sprague-Dawley rats
# Assay: Blood glucose depression after intracolonic bovine pancreatic insulin given with absorption enhancer
# Assay type: in vivo
# Conditions: enhancer 0 mg/kg (insulin alone), rats n=3
# Protocol: It is neutralized by 1 equivalent of sodium hydroxide. The pH is adjusted to 7-8 by 1N HCl and saturated sodium bicarbonate. Bovine pancreatic insulin (1.75 mL; Sigma, 10 mg/mL; in pH 8.2 HEPES buffer) is added and mixed by gentle swirling. The solution density is determined so that the required dose may be calculated.
# The solution is then given to Sprague-Dawley rats (2-day fasting, female, 250-300 g, n=3), intracolonically. Blood samples are taken from the tail vein and glucose levels measured using an OneTouch® UltraSmart® blood glucose meter.
substance,measurement,setting,value
"bovine pancreatic insulin: Bovine pancreatic insulin (Sigma, 10 mg/mL; in pH 8.2 HEPES buffer), the active agent co-administered","Blood glucose, % of basal level",0 min,100 % of basal level
same,"Blood glucose, % of basal level",30 min,94 ± 4 % of basal level
same,"Blood glucose, % of basal level",60 min,102 ± 7 % of basal level
same,"Blood glucose, % of basal level",90 min,105 ± 3 % of basal level
same,"Blood glucose, % of basal level",120 min,107 ± 7 % of basal level
same,"Blood glucose, % of basal level",150 min,94 ± 7 % of basal level
same,"Blood glucose, % of basal level",180 min,111 ± 7 % of basal level
same,"Blood glucose, % of basal level",210 min,113 ± 4 % of basal level
same,"Blood glucose, % of basal level",240 min,100 ± 7 % of basal level
